{"source": "patent US20100331203A1", "about": "“AROMATASE EXPRESSION PREDICTS SURVIVAL IN WOMEN WITH NON-SMALL CELL LUNG CANCER” (THE REGENTS OF THE UNIVERSITY OF CALIFORNIA, priority 2007, published 2010)", "key": {"[1]": {"test_system": "A549 lung tumor cells", "assay": "A549 non-small cell lung tumor xenografts in ovariectomized female athymic mice", "format": "in vivo", "settings": "daily subcutaneous treatment, 5 animals per group, P<0.001", "source_text": "FIG. 1. Growth-promoting effects of estrogen and aromatase substrate on non-small cell lung tumor xenografts in vivo. A549 lung tumor cells which express endogenous aromatase were implanted as subcutaneous xenografts in ovariectomized female athymic mice. Mice were then divided into 3 groups (5 animals per group). ▪ Animals were given daily subcutaneous treatments of the aromatase substrate androstenedione as before (see, e.g. Weinberg et al., Cancer Res 2005; 65:11287-91). […] Animals were given daily subcutaneous treatments of estradiol in a biodegradable binder as described (see, e.g. Pietras et al., Oncogene 1995; 10:2435-46). ▴ Control animals were supplemented with subcutaneous injection of vehicle alone.\nIn this study we examined aromatase, a key enzyme in the estrogen synthesis pathway. We hypothesized that expression of aromatase in lung cancer cells could result in a focal increase in estrogen levels and serve to promote tumor development and/or progression. […] To further assess estrogen signaling in NSCLC in vivo, we implanted A549 lung tumor cells which express endogenous aromatase in ovariectomized female athymic mice.\nThe protocol used for implantation of human lung tumor xenografts in nude mice was described previously (see, e.g. Weinberg et al., Cancer Res 2005; 65:11287-91; Pietras et al., Oncogene 1995; 10:2435-46). […]"}, "[2]": {"settings": "exemestane cohort compared to women maintained on tamoxifen; cited from earlier work"}, "[3]": {"test_system": "human NSCLC xenograph", "settings": "in vivo; cited from earlier work"}, "[4]": {"test_system": "NSCLC cells", "settings": "cited from earlier work"}}, "note": "“Also recorded” adds a separate entry of the source."}
{"smiles": "C[C@]12CCC(=O)C=C1CC[C@@H]1[C@@H]2CC[C@]2(C)C(=O)CC[C@@H]12", "note": "[androstenedione]", "values": [{"measurement": "Growth of A549 tumors compared to control animals", "setting": "[1]", "value": "significantly increased; also recorded: significantly enhanced tumor growth"}]}
{"smiles": "C=C1C[C@@H]2[C@H](CC[C@]3(C)C(=O)CC[C@@H]23)[C@@]2(C)C=CC(=O)C=C12", "note": "[exemestane]", "values": [{"measurement": "Subsequent development of primary lung cancer", "setting": "[2]", "value": "reduction"}]}
{"smiles": "C[C@]12CC[C@@H]3c4ccc(O)cc4C[C@@H](CCCCCCCCC[S+]([O-])CCCC(F)(F)C(F)(F)F)[C@H]3[C@@H]1CC[C@@H]2O", "note": "(stereo partly shown) [Faslodex, fulvestrant]", "values": [{"measurement": "Tumor formation in human NSCLC xenograph model", "setting": "[3]", "value": "inhibited"}, {"measurement": "Effect on 17β-estradiol-induced mitogenesis and gene transcription in NSCLC cells", "setting": "[4]; ER antagonist", "value": "inhibited"}]}
{"smiles": "C[C@]12CC[C@@H]3c4ccc(O)cc4CC[C@H]3[C@@H]1CC[C@@H]2O", "note": "[estradiol, 17β-estradiol]", "values": [{"measurement": "Gene transcription in NSCLC cells", "setting": "[4]; in vitro and in vivo models", "value": "stimulates"}, {"measurement": "Mitogenic effect on NSCLC cells", "setting": "[4]; in vitro and in vivo models", "value": "mitogenic"}, {"measurement": "Growth of A549 tumors compared to control animals", "setting": "[1]", "value": "significantly increased"}]}
